Measurements as given in patent US20170184612A1, “USE OF LEUKOCYTES AND NOVEL BIOMARKERS IN THE DIAGNOSIS, CONFIRMATION, AND TREATMENT OF A NEUROLOGICAL DISORDER” (The Trustees of Columbia University in the City of New York, priority 2014, published 2017).

How the values were obtained:
Type in all cases: cell-based, human
[1] = tested on: peripheral blood mononuclear cells (PBMC), T cells; experiment: ELISpot assay, gamma-interferon release (SFC) after stimulation with a-synuclein epitope pools; details: for IFNg Peptide + (donors positive to the peptide): of donors tested (peptide); for IFNg Peptide +: number of donors positive to the single peptide; for Pool +: IFNg, Pool Stimulated, number of donors with a positive response, Donors tested 1
Method in brief: (§1)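 Cytokine-secreting T cells were enumerated as SFC following 22 h peptide-pool stimulation of gradient-purified PBMC at 37 C. A threshold of 20 SFC per million cells defined confirmed release; group differences were assessed by Mann-Whitney U test.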

[2] = tested on: peripheral blood mononuclear cells (PBMC), T cells; experiment: ELISpot assay, IL-5 release (SFC) after stimulation with a-synuclein epitope pools; details: for IL-g Peptide + (donors positive to the peptide): of donors tested (peptide); for IL-g Peptide +: number of donors positive to the single peptide
Method in brief: as §1

[3] = tested on: peripheral blood mononuclear cells (PBMC), T cells; experiment: ELISpot assay, IFNg and IL-5 reactivity combined, T cell response to α-syn epitopes; details: for Peptides + in Patients & Normals: flag 1/0 per peptide; for epitope identified by deconvolution of T cell response, in words: PD patients, region including Y39
Experimental: Blood from age matched controls and PD patients were obtained and mononuclear cells were isolated by gradient centrifugation.
Release of the cytokines gamma-interferon, which measures activation of CD4+ and/or CD8+ T cells, and the interleukin, IL-5, which measures activation of CD4+ T cells was measured by ELISpot assay. […] After 22 hours of stimulation at 37 C, the cells were removed and release of cytokines was measured by colorimetric detection of spot-forming cells (SFC). Confirmed release of cytokine is determined by the presence of a minimum of 20 SFC per million cells.
The binding algorithms in SubAim 1 predict how well the peptides would bind to MHC if present, but not if they are present in patients. To determine this, the presence of T cell response against the candidate antigens by patient blood-derived peripheral blood mononuclear cells (PBMC) is assessed by ELISPOT assays upon stimulation with the peptides. This assay detects and quantifies cytokine release (in this case, IFNγ and IL-5) from specific activated T cells.
Data were obtained from blood samples (25 ml) from 44 PD patients and 24 age-matched controls. The experiments were conducted blindly. PBMCs from these samples were isolated and exposed to pools comprising the 122 candidate class I and class II antigens and phosphorylated S129 epitopes generated in Subaim 1. For the PBMCs responsive to the pooled peptides, the response was then deconvoluted to identify individual epitopes.
PMBC fractions are recovered by standard methods with Ficoll gradient and T cells expansion (Oseroff et al., 2010). The methods for the analysis of T cell reactions and measurement of cytokines production using the enzyme-linked immunosorbent spot (ELISPOT) assay are published in analogous experiments to discover antigens in multiple sclerosis (Lolli et al., 2013) and in hay fever allergens (Oseroff et al., 2010). T cell responses are determined by measuring IFNγ and IL-5 release by ELISPOT. Statistical analysis of differences between populations is expected to be non-parametric and analyzed with the U-Mann-Whitney test. If there were a normal distribution of response, which is a priori unlikely as some patients have no T cell response, with an SD=1, 8 patients per group would be required to provide a p>90% that the study detect a >2 fold difference at a two-sided 0.05 significance level.

[4] = Patients Summary, PD patients, single peptide
[5] = second 'Pool Stimulated' section (from r296), 12 donors tested
[6] = peptide + / donors tested (peptide), second 'Pool Stimulated' section (from r296), 12 donors tested
[7] = single peptide, second 'Pool Stimulated' section (from r296), 12 donors tested
[8] = Normals Summary, single peptide

Substance | IFNg Peptide + (donors positive to the peptide) ([1]; Patients Summary, PD patients) | IFNg Response Frequency [1, 4] [%] | IFNg Total SFC [1, 4] [SFC] | IFNg Peptide + [1, 5] | IFNg Response Frequency [1, 6] [%] | IFNg Total SFC [1, 7] [SFC] | IL-g Peptide + (donors positive to the peptide) ([2]; Patients Summary, PD patients) | IL-g Response Frequency [2, 4] [%] | IL-g Total SFC [2, 4] [SFC] | IL-g Peptide + [2, 5] | IL-g Response Frequency [2, 6] [%] | IL-g Total SFC [2, 7] [SFC] | Peptides + in Patients & Normals [3] | Pool + [1] | further results
3521.008 (VAAAEKTKQGVAEAA; listed as Homo sapiens) | 1 | 33 | 150 | 0 | 0 | 0 | 0 | 0 | 0 | 0 | 0 | 0 | 0 |  | IFNg Avg SFC [1, 4]: 150 SFC
3521.0046 (FMKGLSKAKE; listed as Homo sapiens) | 0 | 0 | 0 | 0 | 0 | 0 | 0 | 0 | 0 | 0 | 0 | 0 | 0 |  | 
3521.0012 (KTKQGVAEA; listed as Homo sapiens) | 0 | 0 | 0 |  |  |  | 0 | 0 | 0 |  |  |  | 0 |  | IFNg Peptide + (donors positive to the peptide) ([1]; Normals Summary): 0; IFNg Response Frequency [1, 8]: 0%; IFNg Total SFC [1, 8]: 0 SFC; IL-g Peptide + (donors positive to the peptide) ([2]; Normals Summary): 0; IL-g Response Frequency [2, 8]: 0%; IL-g Total SFC [2, 8]: 0 SFC
3521.0074 (VAAAEKTKQGVAEAP; listed as Homo sapiens) | 1 | 33 | 67 | 0 | 0 | 0 | 0 | 0 | 0 | 0 | 0 | 0 | 0 |  | IFNg Avg SFC [1, 4]: 67 SFC
3521.0004 (KTKEGVLYV; listed as Homo sapiens) | 0 | 0 | 0 | 0 | 0 | 0 | 0 | 0 | 0 | 0 | 0 | 0 | 0 |  | 
3521.0066 (KAKEGVVAA; listed as Homo sapiens) | 0 | 0 | 0 | 0 | 0 | 0 | 0 | 0 | 0 | 0 | 0 | 0 | 0 |  | 
GVLYVGSKTK (listed as Homo sapiens) |  |  |  |  |  |  |  |  |  |  |  |  |  |  | epitope identified by deconvolution of T cell response, in words [3]: antigenic
VLYVGSKTK (listed as Homo sapiens) |  |  |  |  |  |  |  |  |  |  |  |  |  |  | epitope identified by deconvolution of T cell response, in words [3]: antigenic
3521.0017 (FMKGLSKAK; listed as Homo sapiens) | 0 | 0 | 0 |  |  |  | 0 | 0 | 0 |  |  |  | 0 |  | IFNg Peptide + (donors positive to the peptide) ([1]; Normals Summary): 1; IFNg Avg SFC [1, 8]: 46.7 SFC; IFNg Response Frequency [1, 8]: 100%; IFNg Total SFC [1, 8]: 46.7 SFC; IL-g Peptide + (donors positive to the peptide) ([2]; Normals Summary): 0; IL-g Response Frequency [2, 8]: 0%; IL-g Total SFC [2, 8]: 0 SFC
3521.0036 (AGSIAAATGF; listed as Homo sapiens) | 0 | 0 | 0 | 0 | 0 | 0 | 0 | 0 | 0 | 0 | 0 | 0 |  | 0 | 
3521.0029 (NVGGAVVTGV; listed as Homo sapiens) | 0 | 0 | 0 | 0 | 0 | 0 | 0 | 0 | 0 | 0 | 0 | 0 |  | 0 | 
3521.0001 (PVDPDNEAY; listed as Homo sapiens) | 0 | 0 | 0 | 0 | 0 |  | 0 | 0 | 0 | 0 | 0 | 0 |  | 0 | 
3521.006 (VATVAEKTKE; listed as Homo sapiens) | 0 | 0 | 0 | 0 | 0 | 0 | 0 | 0 | 0 | 0 | 0 | 0 |  | 1 | 
3521.003 (GSIAAATGFV; listed as Homo sapiens) | 0 | 0 | 0 | 0 | 0 | 0 | 1 | 25 | 40 | 0 | 0 | 0 |  | 0 | IL-g Avg SFC [2, 4]: 40 SFC
3521.0044 (GVTAVAQKTV; listed as Homo sapiens) | 0 | 0 | 0 | 0 | 0 | 0 | 0 | 0 | 0 | 0 | 0 | 0 |  | 0 | 
3521.0042 (AGKTKEGVLY; listed as Homo sapiens) | 1 | 13 | 31 | 0 | 0 | 0 | 0 | 0 | 0 | 0 | 0 | 0 |  | 0 | IFNg Avg SFC [1, 4]: 31 SFC
3521.0034 (GVLYVGSKTK; listed as Homo sapiens) | 5 | 83 | 2260 |  |  |  | 2 | 33 | 284 |  |  |  |  | 1 | IFNg Avg SFC [1, 4]: 452 SFC; IL-g Avg SFC [2, 4]: 142 SFC
